Several values for one entry are separate records, joined by “and”; a condition that tells them apart may be missing. Equal entries are not always repeated. Entries after “also recorded” stand apart in the source; their conditions may differ. Where two headings read alike, the source gives them in different places.
Experiments:
Format in all cases: cell-based, Swiss-Webster mice
cerebrocortical neurons [1] = test system: cerebrocortical neurons
cerebrocortical neurons [2] = test system: cerebrocortical neurons; remark: listed apart in the source
cerebrocortical neurons [3] = assay: Viable neuron count by fluorescein diacetate staining; conditions: read-out: EC50 for decreasing the live neuron count, DIV-9, 95% CI 38.4–176 μM
cerebrocortical neurons [4] = assay: Intracellular Ca2+ monitoring
NMDA receptors = assay: Single-channel cell-attached patch recording of NMDA receptor currents
cerebrocortical neurons [5] = assay: Membrane potential assay
cerebrocortical neurons [6] = assay: Intracellular sodium concentration
Src kinase = test system: Src kinase
[7] = 15 min preincubation with 10 μM PP2 or PP3, after PbTx-2
[8] = 15 min preincubation with 10 μM PP2 or PP3, before PbTx-2

C[C@]12N[C@H](Cc3ccccc31)c1ccccc12 [MK-801]
effect on PbTx-2 enhanced neurite outgrowth (cerebrocortical neurons [1]): abrogated
total neurite length, inhibitor plus 30 nM PbTx-2 (cerebrocortical neurons [1]): 83.1± 5.26 μm

CN[C@H](CC(=O)O)C(=O)O [NMDA]
sensitivity to NMDA-induced LDH efflux (cerebrocortical neurons [2]; 2, 4 and 6 DIV cultures, after 2 h exposure or at 24 h post-exposure): little sensitivity
maximal LDH efflux (cerebrocortical neurons [2]; DIV-9 cultures, 24 h after initiation of 2 h NMDA exposure): 247 ± 10.5 % of control
EC50 (cerebrocortical neurons [2]; read-out: EC50 for LDH efflux, DIV-9 neurons, 95% CI 27.9–101 μM): 53.1 µM
EC50 (cerebrocortical neurons [3]): 82.2 µM
effect of NMDA alone on [Ca2+]i (cerebrocortical neurons [4]; 3 μM NMDA, DIV-2 neurons): did not affect [Ca^2+]i
EC50 (cerebrocortical neurons [4]; read-out: EC50 for NMDA-induced Ca2+ influx, DIV-4 neurons, absence of PbTx-2): 19.2 µM
EC50 (cerebrocortical neurons [4]; read-out: EC50 for NMDA-induced Ca2+ influx, DIV-9 neurons, absence of PbTx-2): 11.1 µM

Nc1ncnc2c1cnn2-c1ccccc1 [PP3, 4-Amino-7-phenylpyrazol [3,4-d] pyrimidine]
mean open time, inhibitor plus PbTx-2 (NMDA receptors; [7]): 3.87 ± 0.15 ms
open probability (Po), inhibitor plus PbTx-2 (NMDA receptors; [7]): 0.013 ± 0.003
mean open time, inhibitor alone (control) (NMDA receptors; [8]): 1.39 ± 0.09 ms
open probability (Po), inhibitor alone (control) (NMDA receptors; [8]): 0.0032 ± 0.0005

C=C(C=O)C[C@@H]1C[C@H](O)[C@]2(C)O[C@@H]3C[C@@H]4O[C@@H]5C[C@]6(C)O[C@]7(C)CC[C@@H]8O[C@@H]9C[C@]%10(C)O[C@@H]%11C(C)=CC(=O)O[C@H]%11C[C@H]%10O[C@H]9C[C@@H](C)[C@H]8O[C@H]7C[C@H]6O[C@H]5C/C=C\[C@H]4O[C@H]3C[C@H]2O1 [PbTx-2, Brevetoxin-2]
membrane potential after PbTx-2 (cerebrocortical neurons [5]): 29.3 ± 0.02 mV
membrane potential change (depolarization) (cerebrocortical neurons [5]): 0.2 ± 0.02 mV
EC50 (cerebrocortical neurons [5]; read-out: EC50 for increment in FMP blue fluorescence (membrane potential)): 0.0967 µM
amplitude of single channel currents (NMDA receptors): 6.8 ± 0.4 pA
effect on membrane potential from single channel NMDA receptor currents (NMDA receptors): did not affect
open probability (Po) of NMDA receptors (NMDA receptors): 0.031 ± 0.008
open time histogram, first time constant (area) (NMDA receptors): 1.6 (65%)
open time histogram, second time constant (area) (NMDA receptors): 4.1 (35%)
shut time histogram, first time constant (area) (NMDA receptors): 0.63 (45%)
shut time histogram, fourth time constant (area) (NMDA receptors): 1361 (11%)
shut time histogram, second time constant (area) (NMDA receptors): 10.0 (16%)
shut time histogram, third time constant (area) (NMDA receptors): 180 (28%)
[Na+]i increment over basal (cerebrocortical neurons [6]): 8.8 ± 1.8 mM
concentration-response profile of [Na+]i (cerebrocortical neurons [6]): hormetic profile
maximum [Na+]i (cerebrocortical neurons [6]): 16.9 ± 1.5 mM
maximum elevation of [Na+]i (concentration-response) (cerebrocortical neurons [6]): 36.6 ± 0.9 mM
EC50 (cerebrocortical neurons [6]; read-out: EC50 for PbTx-2-induced elevation of [Na+]i): 0.0433 µM
Ca2+ influx pathway stimulated (cerebrocortical neurons [4]): primarily through NMDA receptors; also recorded: through both L-type calcium channels and NMDA receptors
effect of PbTx-2 alone on [Ca2+]i (cerebrocortical neurons [4]): did not alter [Ca^2+]i
effect of PbTx-2 alone on fluo-3 fluorescence (cerebrocortical neurons [4]): did not increase fluo-3 fluorescence
effect on NMDA-induced Ca2+ influx (cerebrocortical neurons [4]): robust potentiation
EC50 (cerebrocortical neurons [4]; read-out: EC50 for PbTx-2-stimulated increase in [Ca2+]i): 0.244 µM
total neurite length (cerebrocortical neurons [1]): 265.8 ± 20.86 μm and 166.5 ± 17.9 μm
phosphorylation of tyrosine 416 of Src (Src kinase): significant increase

O=C(O)c1ccc2c3c1cccc3c(=O)n1c3ccccc3nc21 [STO-609, 1,8-naphthoylene benzimidazole-3-carboxylic acid]
effect on PbTx-2 enhanced neurite outgrowth (cerebrocortical neurons [1]): completely blocked

NC1=N[C@H](O)[C@H]2[C@H]3O[C@]4(O)O[C@@H]([C@@H](O)[C@@]2(N1)[C@@H]4O)[C@]3(O)CO [TTX, tetrodotoxin]
effect on PbTx-2 enhanced neurite outgrowth (cerebrocortical neurons [1]): completely blocked
total neurite length, inhibitor alone (cerebrocortical neurons [1]): 185 ± 13.2 μm
total neurite length, inhibitor plus 30 nM PbTx-2 (cerebrocortical neurons [1]): 190.2 ± 10.7 μm

From PMC2683593 (The Journal of neuroscience : the official journal of the …, 2009)
